Results reported in patent publication US8119689B2, “Adjuvants on the basis of bisacyloxypropylcystene conjugates and derivatives and their uses in pharmaceutical compositions” (Helmholtz-Zentrum Fuer Infektionsforschung GmbH, priority 2005, dated 2012).
“Also recorded” adds a separate entry of the source.

How the values were obtained:
[1] = test system: β-gal-specific antibodies; experiment: Serum β-gal-specific IgG titers after i.n. or s.c. vaccination (ELISA); format: in vivo, BALB/c mice
Protocol: FIG. 5: FIG. 5 illustrates the humoral responses following vaccination using BPPcysGlyc4armPEG and BPPcysAda, respectively, as adjuvant. Mice were immunised by intranasal (i.n.) and subcutaneous, transcutaneous (topical vaccination) (s.c.) routes with either β-galactosidase (30 μg) alone or β-galactosidase mixed with BPPcysGlyc4armPEG or BPPcysAda on days 0, 14 and 28. At day 38 post primary immunisation, serum samples were collected and the titre of 1-galactosidase-specific antibodies was determined by ELISA. As a control, a group in which animals were immunized with β-galactosidase alone was used (A). In (B) and (C) the kinetic of antigen specific serum IgG is shown for intranasal vaccination (B) and parenteral vaccination (C), respectively. […] Differences were statistically significant at p<0.05 (*) with respect to mice receiving antigen alone. One representative out of four independent experiments is shown. SEM is indicated by vertical lines.
Experimental protocol: six-eight weeks-old female BALB/c (H-2d) mice were purchased from Harlan Winkelmann GmbH (Borchen, Germany) and treated in accordance with local and European Community guidelines. […] Endpoint titers were expressed as the reciprocal log2 of the last dilution, which gave an optical density at 405 nm of 0.1 units above the values of the negative controls after 15 to 30 min of incubation.

[2] = test system: β-gal antigen-specific IgG isotypes; experiment: β-gal-specific IgG isotypes in sera of immunized mice (isotype ELISA); format: in vivo
Protocol: FIG. 8: FIG. 8 provides the analysis of beta-Gal specific IgG isotypes in sera of immunized mice. Anti-beta-Gal specific IgG isotypes of the groups immunized with PBS, (control) beta-Gal+either BPPcysGlyc4armPEG or BPPcysPEG (FIG. 8A) or BPPcysAda or Ada alone (FIG. 8B), or beta-Gal alone of mice immunized by the i.n. or s.c. route were determined by ELISA. Results are expressed as end point titers. IgG titers represent the mean of five animals per experimental group. Differences were statistically significant at p<0.05 (*) with respect to mice receiving antigen alone. One representative out of four independent experiments is shown. SEM is indicated by vertical lines.
Isotyp ELISA: 96-well Nunc-Immuno MaxiSorp assay plates (Nunc, Roskilde, Denmark) were coated with 100 μl of β-gal (Boehringer, Mannheim, Germany) at 5 μg/ml in 0.05 M carbonate buffer (pH 8.2) per well. Serial two-fold dilutions of sera or lavages in PBS with 1% BSA and 0.05% Tween 20 were added (100 μl/well), and plates incubated for 2 h at 37° C. After washing, biotin-conjugated rat anti-mouse IgG1 or IgG2a (Pharmingen, Hamburg, Germany) were added to determine IgG subclasses. Plates were incubated for an additional 1 h at 37° C. After four washes, 100 μl of peroxidase-conjugated streptavidin (Pharmingen) was added to cells and plates incubated at 37° C. for 30 min. After four washes, reactions were developed with ABTS in 0.1 M citrate-phosphate buffer (pH 4.35) containing 0.01% H2O2. To determine the concentration of IgG subclasses in serum, standard curves were obtained by coating the wells with an isotype-specific goat anti-mouse IgG, and then by incubating with purified mouse IgG1 or IgG2a antibodies (Dianova, Hamburg, Germany).

[3] = test system: spleen cells; experiment: Cytokines secreted by in vitro re-stimulated spleen cells of immunized mice (cytometric bead array); format: in vivo
Protocol: Cytokines secreted by in vitro re-stimulated spleen cells were determined in immunized mice by CBA. Results are expressed as cytokine concentration ratios (IL-10 the most prominent detected cytokine) (B) and (D) and the stimulation index (A) and (C).
Cytometric Bead Array: Culture supernatants from proliferating cells were collected on days 2 and 4, and stored at −70° C. Determinations of IFN-γ, TNFα, IL-2, IL-4, IL-5, IL-6, IL-10 and IL-12 were performed by cytometric bead array analysis using the commercial kit from BD, according to the manufacturer's instructions. A standard curve was generated for each cytokine by using the corresponding recombinant murine cytokines (Pharmingen). Probes were incubated at room temperature for additional 2 h. The probes were then analyzed by flow cytometry as described by the protocol of BD.
To characterize the type of Th response stimulated following immunization, the content of IFN-γ, IL-2, IL-4, IL-5, IL-6, IL-10, IL-12 and TNFα was measured in supernatants from in vitro re-stimulated spleen cells (FIG. 7). […] In fact, the strong stimulation of IL-10 secretion is congruent with the role played by this cytokine in the inhibition of cytokine synthesis by Th1 cells, the enhancement of B cells proliferation and the stimulation of IgA production.

[4] = test system: CD8+ T cells; experiment: IFNγ-producing CD8+ T cells after stimulating splenocytes with MHC cl. I restricted β-Gal or OVA peptides; format: in vivo; conditions: vs β-Gal or OVA alone-treated groups; intranasal, subcutaneous or intramuscular route (not shown)
Protocol: To assess the epitope-specific cellular immune response induced by the co-administration of BPPCysAda via intranasal, subcutaneous or intramuscular route, IFNγ-producing CD8+ T cells were analyzed after stimulating splenocytes with the MHC cl. I restricted β-Gal (TPHPARIGL) or OVA ([…]) peptides.

[5] = supernatants of in vitro re-stimulated spleen cells

**Q.** How did the “β-gal-specific serum IgG titers, i.n. administration” value ([1]; i.n. with β-gal, vs antigen alone) turn out when `CCCCCCCCCCCCCCCC(=O)OCC(CSC[C@H](N)C(=O)N[C@H]1[C@@H](O)[C@H](n2cnc3c(N)ncnc32)O[C@@H]1CO)OC(=O)CCCCCCCCCCCCCCC` (single isomer, unassigned) [BPPcysAda, S-[2,3-bis(palmitoyloxy)-(2S or 2R)-propyl]-L-cysteinylcarboxy-3′Amino-3′-deoxyadenosine] was run?
**A.** enhanced expression; also recorded: very high titers; also recorded: significantly higher levels

**Q.** And the “β-gal-specific serum IgG titers, s.c. route” value ([1]; s.c. co-injection with β-gal, vs β-gal alone)?
**A.** enhanced expression; also recorded: increased

**Q.** And the “antigen specific antibodies of the IgG1 subtype, intranasal” value ([2]; intranasal administration)?
**A.** significantly enhances; also recorded: strongly increased

**Q.** And the “antigen specific antibodies of the IgG2a isotype, intranasal” value ([2]; intranasal administration)?
**A.** significantly enhances; also recorded: strongly increased

**Q.** And the “expression of the IgG1 isotype, subcutaneous” value ([2]; subcutaneous administration)?
**A.** strongly increased

**Q.** And the “expression of the IgG2a isotype, subcutaneous” value ([2]; subcutaneous administration)?
**A.** strongly increased

**Q.** What about the IL-4 levels ([3]; all BPPcysAda co-administered groups, intranasal) of the same compound?
**A.** induced

**Q.** And the “type of immune response induced” value ([3]; mucosal and parenteral co-administration)?
**A.** Th2 dominated immune response

**Q.** And the IFNγ secretion [3, 5]?
**A.** weaker increase; also recorded: minor secretion

**Q.** And the IL-2 secretion [3, 5]?
**A.** induced; also recorded: weaker increase; also recorded: minor secretion

**Q.** What about the IL-6 secretion [3, 5] of the same compound?
**A.** weaker increase

**Q.** What about the IL-10 levels [3, 5] of the same compound?
**A.** significantly increased

**Q.** And the TNFα secretion [3, 5]?
**A.** weaker increase

**Q.** What about the “number of IFNγ-secreting CD8+ T cells” value [4] of the same compound?
**A.** significantly decreased
